Measured values: ChEMBL document CHEMBL2439971, “Design, synthesis and antiproliferative evaluation of fluorenone analogs with DNA topoisomerase I inhibitory properties” (Bioorg Med Chem, 2013)
Activity calls are given as the source filed them. No cut-off for these calls is given here.

Legend:
SR = assay: Cytotoxicity against human SR cells after 48 hrs by sulforhodamine B assay; format: functional
SN12C [1] = assay: Cytotoxicity against human SN12C cells after 48 hrs by sulforhodamine B assay; format: functional
NCI-H226 [2] = assay: Cytotoxicity against human NCI-H226 cells after 48 hrs by sulforhodamine B assay; format: functional; conditions: NCI-H226, 48 h
IGROV-1 = assay: Cytotoxicity against human IGROV1 cells at 10 uM after 48 hrs by sulforhodamine B assay relative to control; format: functional
OVCAR-8 = assay: Cytotoxicity against human OVCAR8 cells at 10 uM after 48 hrs by sulforhodamine B assay relative to control; format: functional
UO-31 = assay: Cytotoxicity against human UO31 cells after 48 hrs by sulforhodamine B assay; format: functional; conditions: UO-31, 48 h
T47D [3] = assay: Cytotoxicity against human T47D cells after 48 hrs by sulforhodamine B assay; format: functional
SF-268 = assay: Cytotoxicity against human SF268 cells at 10 uM after 48 hrs by sulforhodamine B assay relative to control; format: functional
NCI-H23 = assay: Cytotoxicity against human NCI-H23 cells at 10 uM after 48 hrs by sulforhodamine B assay relative to control; format: functional
786-0 = assay: Cytotoxicity against human 786-0 cells at 10 uM after 48 hrs by sulforhodamine B assay relative to control; format: functional
U-251 = assay: Cytotoxicity against human U251 cells after 48 hrs by sulforhodamine B assay; format: functional; conditions: U-251, 48 h
COLO 205 = assay: Cytotoxicity against human COLO205 cells after 48 hrs by sulforhodamine B assay; format: functional; conditions: COLO 205, 48 h
SF-295 = assay: Cytotoxicity against human SF295 cells at 10 uM after 48 hrs by sulforhodamine B assay relative to control; format: functional
OVCAR-4 = assay: Cytotoxicity against human OVCAR4 cells after 48 hrs by sulforhodamine B assay; format: functional; conditions: OVCAR-4, 48 h
SNB-19 = assay: Cytotoxicity against human SNB19 cells after 48 hrs by sulforhodamine B assay; format: functional; conditions: SNB-19, 48 h
UACC-62 = assay: Cytotoxicity against human UACC62 cells at 10 uM after 48 hrs by sulforhodamine B assay relative to control; format: functional
[4] = Cytotoxicity against human Hs 578T cells at 10 uM after 48 hrs by sulforhodamine B assay relative to control; format: functional
MOLT-4 = assay: Cytotoxicity against human MOLT4 cells after 48 hrs by sulforhodamine B assay; format: functional; conditions: MOLT-4, 48 h
SK-MEL-28 = assay: Cytotoxicity against human SK-MEL-28 cells after 48 hrs by sulforhodamine B assay; format: functional; conditions: SK-MEL-28, 48 h
OVCAR-3 = assay: Cytotoxicity against human OVCAR3 cells after 48 hrs by sulforhodamine B assay; format: functional; conditions: OVCAR-3, 48 h
UACC-257 = assay: Cytotoxicity against human UACC257 cells after 48 hrs by sulforhodamine B assay; format: functional; conditions: UACC-257, 48 h
SK-MEL-2 = assay: Cytotoxicity against human SK-MEL-2 cells at 10 uM after 48 hrs by sulforhodamine B assay relative to control; format: functional
KM12 = assay: Cytotoxicity against human KM12 cells after 48 hrs by sulforhodamine B assay; format: functional; conditions: KM12, 48 h
HOP-92 = assay: Cytotoxicity against human HOP92 cells at 10 uM after 48 hrs by sulforhodamine B assay relative to control; format: functional
T47D [5] = assay: Cytotoxicity against human T47D cells at 10 uM after 48 hrs by sulforhodamine B assay relative to control; format: functional
M14 = assay: Cytotoxicity against human M14 cells at 10 uM after 48 hrs by sulforhodamine B assay relative to control; format: functional
TK-10 = assay: Cytotoxicity against human TK10 cells at 10 uM after 48 hrs by sulforhodamine B assay relative to control; format: functional
RPMI-8226 = assay: Cytotoxicity against human RPMI8226 cells at 10 uM after 48 hrs by sulforhodamine B assay relative to control; format: functional
HCT-15 = assay: Cytotoxicity against human HCT15 cells after 48 hrs by sulforhodamine B assay; format: functional; conditions: HCT-15, 48 h
[6] = Cytotoxicity against human Hs 578T cells after 48 hrs by sulforhodamine B assay; format: functional
Homo sapiens = species on record: Homo sapiens; assay: Inhibition of telomerase (unknown origin) at 10 uM TRAP assay
SN12C [7] = assay: Cytotoxicity against human SN12C cells at 10 uM after 48 hrs by sulforhodamine B assay relative to control; format: functional
A498 = assay: Cytotoxicity against human A498 cells after 48 hrs by sulforhodamine B assay; format: functional; conditions: A498, 48 h
CAKI-1 = assay: Cytotoxicity against human CAKI-1 cells after 48 hrs by sulforhodamine B assay; format: functional; conditions: CAKI-1, 48 h
NCI-H226 [8] = assay: Cytotoxicity against human NCI-H226 cells at 10 uM after 48 hrs by sulforhodamine B assay relative to control; format: functional
HCC 2998 = assay: Cytotoxicity against human HCC2998 cells at 10 uM after 48 hrs by sulforhodamine B assay relative to control; format: functional
NCI/ADR-RES = assay: Cytotoxicity against human NCI/ADR-RES cells after 48 hrs by sulforhodamine B assay; format: functional
SK-OV-3 = assay: Cytotoxicity against human SKOV3 cells after 48 hrs by sulforhodamine B assay; format: functional; conditions: SK-OV-3, 48 h
MDA-MB-468 = assay: Cytotoxicity against human MDA-MB-468 cells after 48 hrs by sulforhodamine B assay; format: functional; conditions: MDA-MB-468, 48 h
[9] = read-out: LC50 (the source's name)

Molecule `CCCCNCC(=O)Nc1ccc2c(c1)C(=O)c1cc(NC(=O)CNCCCC)ccc1-2` has a GI50 (SR) of 0.22 µM, a TGI (SR) of 0.53 µM and a CC50 (SR; [9]) of 3.44 µM. The GI50 (SN12C [1]) was 3.48 µM, the TGI (SN12C [1]) was 14.6 µM and the CC50 (SN12C [1]; [9]) was 41.2 µM. The GI50 (NCI-H226 [2]) was 10.1 µM, the TGI (NCI-H226 [2]) was 23.3 µM and the CC50 (NCI-H226 [2]; [9]) was 53.6 µM. The Activity (IGROV-1) was 46.91%, the Activity (OVCAR-8) was 9.6% and the GI50 (UO-31) was 2.04 µM. For the same molecule, the TGI (UO-31) was 5.47 µM, the CC50 (UO-31; [9]) was 25.2 µM and the GI50 (T47D [3]) was 1.56 µM. The TGI (T47D [3]) was 2.98 µM, the CC50 (T47D [3]; [9]) was 5.71 µM and the Activity (SF-268) was 38.37%. It also gave an Activity (NCI-H23) of 70.39%, an Activity (786-0) of -73.24% and a GI50 (U-251) of 1.31 µM. For the same molecule, the TGI (U-251) was 2.65 µM, the CC50 (U-251; [9]) was 5.34 µM and the GI50 (COLO 205) was 1.27 µM. It also gave a TGI (COLO 205) of 2.64 µM, a CC50 (COLO 205; [9]) of 5.48 µM and an Activity (SF-295) of -26.11%. For the same molecule, the GI50 (OVCAR-4) was 2.06 µM, the TGI (OVCAR-4) was 5.02 µM and the CC50 (OVCAR-4; [9]) was 15.9 µM. It also gave a GI50 (SNB-19) of 2.54 µM, a TGI (SNB-19) of 8.94 µM and a CC50 (SNB-19; [9]) of 30.6 µM. The Activity (UACC-62) was 7.57%, the Activity [4] was 37.13% and the GI50 (MOLT-4) was 0.56 µM. It also gave a TGI (MOLT-4) of 2.29 µM, a CC50 (MOLT-4; [9]) of 7.26 µM and a GI50 (SK-MEL-28) of 1.94 µM. It also gave a TGI (SK-MEL-28) of 3.46 µM, a CC50 (SK-MEL-28; [9]) of 6.18 µM and a GI50 (OVCAR-3) of 1.73 µM. The TGI (OVCAR-3) was 3.23 µM, the CC50 (OVCAR-3; [9]) was 6.05 µM and the GI50 (UACC-257) was 1.87 µM. It also gave a TGI (UACC-257) of 3.37 µM, a CC50 (UACC-257; [9]) of 6.08 µM and an Activity (SK-MEL-2) of -63.34%. It also gave a GI50 (KM12) of 1.64 µM, a TGI (KM12) of 3.38 µM and a CC50 (KM12; [9]) of 7 µM. The Activity (HOP-92) was 6.92%, the Activity (T47D [5]) was -26.4% and the Activity (M14) was -91.02%. It also gave an Activity (TK-10) of 7.32%, an Activity (RPMI-8226) of -37.38% and a GI50 (HCT-15) of 1.26 µM. For the same molecule, the TGI (HCT-15) was 3.34 µM, the CC50 (HCT-15; [9]) was 8.89 µM and the GI50 [6] was 2.63 µM. The TGI [6] was 9.23 µM, the CC50 [6, 9] was 70.9 µM and the inhibition (Homo sapiens) was “inactive”. It also gave an Activity (SN12C [7]) of 67.76%, a GI50 (A498) of 1.63 µM and a TGI (A498) of 5.36 µM. For the same molecule, the CC50 (A498; [9]) was 25.1 µM, the GI50 (CAKI-1) was 1.79 µM and the TGI (CAKI-1) was 6.45 µM. For the same molecule, the CC50 (CAKI-1; [9]) was 26.9 µM, the Activity (NCI-H226 [8]) was 67.92% and the Activity (HCC 2998) was -50.75%. The GI50 (NCI/ADR-RES) was 2.89 µM, the TGI (NCI/ADR-RES) was 10.9 µM and the CC50 (NCI/ADR-RES; [9]) was 41.4 µM. It also gave a GI50 (SK-OV-3) of 2.55 µM, a TGI (SK-OV-3) of 8.26 µM and a CC50 (SK-OV-3; [9]) of 29.5 µM. For the same molecule, the GI50 (MDA-MB-468) was 1.85 µM, the TGI (MDA-MB-468) was 3.57 µM and the CC50 (MDA-MB-468; [9]) was 6.89 µM.
